Test results published in US5942511A, “Allylthiopyridazine derivatives and process for preparing the same” (Kwon; Soon Kyoung, priority 1998, dated 1999).
Several values for one entry are separate records, joined by “and”; a condition that tells them apart may be missing. Identical values can stand only once.

Legend:
[1] = system: serum ALT (alanine aminotransferase); experiment: Effect of inhibiting hepatic disorder induced by carbon tetrachloride: serum ALT; assay type: in vivo, male ICR mice; settings: CCl4 100 μl/kg i.p., compound 50 mg/kg per day oral, 3 days
From the text: First, the effects of allylthiopyridazine derivative of formula (I) for prevention and treatment of hepatic diseases was examined using carbon tetrachloride model and acetaminophen model.
Carbon tetrachloride model [see, Philippe letteron et al., Biochemical Pharmacology, 39, 12, 2027-2034, 1990] is most frequently used as an experimental model of hepatic disorder and has been established on the basis of the fact that carbon tetrachloride is converted into trichloromethyl free radical (CCl3 .), a highly toxic metabolite, by the action of cytochrome P-450 in body. This metabolite strongly binds with thiol group of liver microsomal membrane protein to produce a lipid radical, which is then converted into peroxy radical in the presence of oxygen, thereby stimulating the peroxidation reaction of membrane lipid. That is, carbon tetrachloride inhibits protein biosynthesis in liver, increases blood ALT (alanine aminotransferase) and causes centrilobular necrosis of liver cells.
(§1) In the present invention, the inhibiting effect of the compound of formula (I) on hepatic disorder, induced by carbon tetrachloride and acetaminophene, was determined after oral administration of the novel compound according to the present invention to mouse as the experimental animal for 3 days. The degree of liver damage in respective experimental animal was determined by measuring ALT and LDH levels in blood [see, Biol. Pharm. Bull., 20, 4, 381-385, 1997; Toxicology and Applied Pharmacology, 95, 1-11, 1988], and further by removing the liver, staining (×100) the liver with hematoxylin and eosin and then observing with microscope to examine the degree of hepatocyte necrosis.
Effect of inhibiting hepatic disorder induced by carbon tetrachloride
The liver protective effect of the compound according to the present invention was examined according to the known method [see, Philippe letteron et al., Biochemical Pharmacology, 39, 12, 2027-2034, 1990] as specifically described below.
The compound according to the present invention was suspended in corn oil and the resulting suspension was administered in an amount of 1.0 ml/kg. Each group was composed of 3 to 10 male ICR mice (5-6 weeks) and the test compound was orally administered for 3 days in the dose of 50 mg/kg per day. After the test compound was administered, carbon tetrachloride was intraperitoneally injected in an amount of 100 μl/kg. In this experiment, silymarin was used as the comparative compound. After 24 hours from administration of carbon tetrachloride, blood was taken from the test animal by cardiac perforation and ALT value in serum was determined. The result obtained is described in the following Table 2 (in which ALT value is represented by mean±SE). The ALT unit in serum was determined by centrifuging blood to separate serum as the supernatant, and then the separated serum were subjected to Reitman-Frankel method by means of a commercially available kit (BC101-O,P, Youngdong Pharm.). That is, DL-alanine and α-ketoglutarate were used as the substrate solution to which 2,4-dinitrophenylhydrazine was added to produce hydrazone. Then, sodium hydroxide was added to hydrazone to colorize and then the absorbance was measured at 505 nm.

[2] = system: serum LDH (lactate dehydrogenase); experiment: Effect of inhibiting hepatic disorder induced by acetaminophen (APAP): serum LDH; assay type: in vivo, male ICR mice; settings: APAP 0.5 g/kg oral, compound 50 mg/kg per day oral, 3 days
From the text: In addition, the liver protective effects of the compound of the present invention can also be confirmed by acetaminophen model [see, Wang et al., Toxicology and applied Pharmacology, 136, 146-154, 1996]. Acetaminophen is rapidly metabolized by CYP2E1 to cause hepatic toxicity, which results in structural and functional change in liver cellular membrane, causing necrosis in hepatic lobule, an increase in blood ALT and LDH (lactate dehydrogenase) levels.
as §1
Effect of inhibiting hepatic disorder induced by acetaminophen (APAP)
The liver protective effect of the compound according to the present invention was examined according to the known method [see, Wang et al., Toxicology and applied Pharmacology, 136, 146-154, 1996] as specifically described below.
The compound according to the present invention was suspended in corn oil and the resulting suspension was administered in an amount of 1.0 ml/kg. Each group was composed of 3 to 10 male ICR mice (5-6 weeks) and the test compound was orally administered for 3 days in the dose of 50 mg/kg per day. After 2 hours from the last administration of the test compound, acetaminophen was orally administered in an amount of 0.5 g/kg. In this experiment, silymarin was used as the comparative compound. After 22 hours from the administration of acetaminphen, blood was taken from the individual test animal and ALT and LDH values in serum were determined. The results as obtained are described in the following Tables 4 and 5 (in which ALT and LDH values are represented by mean±SE). In addition, liver was removed from the test animals and then observed according to the same manner as Experiment 3 to evaluate the degree of hepatocyte necrosis.

radiation damage = experiment: Protective effect against radiation damage: survival of mouse; assay type: in vivo, male ICR mouse; settings: 100 mg/kg per day, 2 days
From the text: Further, the present inventors have confirmed the protective effect of allylthiopyridazine derivative according to the present invention against radiation by administering the active compound to mouse, irradiating the radiation of 8 or 9Gy and, after a certain period, measuring the survival rate of mouse. For example, the survival rate during 30 days of 8Gy radiation can be seen from FIG. 3, and the specific experimental result is described in the following Table 7. Specifically, when 8Gy radiation is used, the survival rate during 30 days in the groups which only radiation was used was merely 48%, whereas the survival rates during 30 days in the groups to which the compounds of Examples 4 and 8 are previously administered were 76% and 70%, respectively. Therefore, it can be noted that the protective effect of the compound according to the present invention against radiation is proven to be a very significant novel discovery.
Protective effect against radiation damage
In order to confirm the protective effect of the compound of the present invention against radiation damage, the following test was conducted.
Male ICR mouse was bred in a chamber to which sterile atmosphere is supplied, at inner temperature 20-23° C. and relative humidity 50% with sufficient water and feed. When the weight of mouse reached 20-25 g, the compound of the present invention was suspended in corn oil and then administered for 2 days in the dose of 100 mg/kg (1 ml/kg) per day. After 3 hours from the last administration of the test compound, 8 or 9 Gy radiation was irradiated to mouse. Specifically, mouse was introduced into a box made of acryl which limited his movement, and then radiation produced from ^60 Co radioactive material was irradiated to whole body at the irradiating rate of 115.8 cGy/min. The dimension of acryl box was 31×31 cm^2, which is the same as the irradiating area of radiation. After 7 days of irradiation of γ-ray, mouse was sacrificed to conduct the histopathologic observation. The result of examining the survival rate during 30 days of irradiation of 8 Gy radiation is shown in FIG. 3, and the result of determining the survival rate after a certain period (10, 13 or 30 days) from irradiation of 8 or 9 Gy radiation is described in the following Table 7.

Question: Which “Inhibiting rate (serum ALT)” value [1] does the source give for `C=CCSc1ccc(OC)nn1` [Example 4, 3-methoxy-6-allylthiopyridazine] here?
Answer: Its value is 57%.

Question: What about the “Serum ALT value” ([1]; mean±SE) of the same compound?
Answer: Its value is 3966 ± 1116 KA unit/l.

Question: What about the “Inhibiting rate (serum LDH)” value [2] of the same compound?
Answer: The value was 99.8%.

Question: What about the “Serum LDH value” ([2]; mean±SE) of the same compound?
Answer: The value was 703 ± 83 KA unit/l.

Question: And the survival number (radiation damage; 10 days of 9 Gy radiation)?
Answer: The survival number was 16/23.

Question: And the survival rate (radiation damage; 10 days of 9 Gy radiation)?
Answer: The survival rate was 70%.

Question: And the survival number (radiation damage; 13 days of 9 Gy radiation)?
Answer: The survival number was 3/23.

Question: What about the survival rate (radiation damage; 13 days of 9 Gy radiation) of the same compound?
Answer: Its survival rate is 13%.

Question: And the survival number (radiation damage; 30 days of 8 Gy radiation)?
Answer: Its survival number is 18/23.

Question: What about the survival rate (radiation damage; 30 days of 8 Gy radiation, 100 mg/kg/day) of the same compound?
Answer: The survival rate was 78% and 76%.
